Test results published in patent US20240336653A1, “PEPTIDE COMPOUND TARGETING ELASTIN-DERIVED PEPTIDES AND USE THEREOF” (Shenzhen Turier Biotech Co., Ltd., priority 2020, published 2024).
Where no end group is shown, it is not given here. [ ]: non-standard residue; d: D form. Iva = CC[C@](C)(N)C(=O)O

Experiments:
TGF-β = test: ELISA of TGFβ in serum of mice of the bleomycin model; format: in vivo, C57BL/6J mice; conditions: BLM mice, 150 μg/kg daily intraperitoneal, 14 days, FIG. 6-B
Procedure: (§1) Molding method: 78 male C57BL/6J mice, 16-18 g in weight and 6-8 weeks old, provided by Laboratory Animal Center, Sun Yat-sen University, randomly divided into 13 groups: 1) normal control group (Normal), n=6; 2) sham-operated saline control group (Saline), n=6; 3) bleomycin model group (BLM), n=6; and 4) model treatment group: administration of 150 μg/kg series compounds to mice, 10 groups in total, n=6/group. On the 7th day after the operation of bleomycin induced pulmonary fibrosis in mice, mice in the model treatment group are treated with drugs (administration frequency: daily administration/150 μg/kg, intraperitoneal injection). Samples are taken 14 days after administration, and pathological observations are recorded.
(§2) The bleomycin (purchased from TCI Shanghai)) induced pulmonary fibrosis model manifests the following pathological features: bronchiectasis, hydropic degeneration of bronchial epithelial cells, obvious edema and widening of alveolar interstitium, and deposition of a large number of fibroblasts and collagen tissue. The alveolar structure almost completely disappears, filled with fibrous connective tissue, and accompanied by inflammatory cell infiltration. After 14 days of administration, the mice in the model treatment group are treated and sampled. Blood is taken from the retrobulbar vein for detection of serological indicators, and […] is taken for pathological analysis.
(§3) The occurrence and development of fibrotic diseases are related to TGF-β and MMP-9 induced EMT process. Matrix metalloproteinases (MMPs) are matrix degrading proteases that degrade all components of extracellular matrix. They participate in the pathophysiological process of pulmonary fibrosis, play an important role in the abnormal remodeling of extracellular matrix and destruction of basement membrane, and promote the recruitment of inflammatory cells and fibroblasts. The increased expression of MMP-9 in pulmonary fibrosis animal models and patients, higher than the normal MMP-9 level, may destroy normal tissue structure and increase the migration of inflammatory cells to the disease site. In order to further explore the inhibitory mechanism of polypeptide drugs on bleomycin induced pulmonary fibrosis, we detect the expression of TGFβ, MMP9 cell factors in serum of mice in each group by ELISA. […] We speculate that its mechanism should be related to TGF-β.

[1] = tested on: CCl4 induced hepatic fibrosis; test: Carbon tetrachloride (CCl4) induced hepatic fibrosis model in mice; format: in vivo, C57BL/6J mice; conditions: 100.0 μg/kg intraperitoneal, 3 weeks of administration; for aggregation of inflammatory cells in the liver (HE staining) / hepatic fibrosis of mice: FIG. 2; for expression of Collagen I in the liver (immunohistochemistry): FIG. 3; for collagen deposition in the liver (Sirius red staining): FIG. 4
Procedure: Molding method: 72 male C57BL/6J mice, male, 18-22 g in weight and 8 weeks old, provided by Laboratory Animal Center, Sun Yat-sen University, randomly divided into 12 groups: 1) control group (Oil)+saline, intraperitoneal injection, n=6; 2) model control group (CCl4)+saline, intraperitoneal injection, n=6; administration of CCl4 to mice once every three days for 6 weeks; 3) model administration group (CCl4)+100.0 μg/kg series of compounds (group 10), intraperitoneal injection, n=6/group. The mice in the control group are injected with corn oil at the same volume and frequency according to the administration volume of 20% CCl4 at the weight of 5.0 μL/g. Administration frequency: administration of CCl4 to mice once every three days for 6 weeks. After 3 weeks of administration of CCl4 to mice in the model administration group, peptide compounds 1, 5, 7, 11, 12, 13, 17, 18, 21 and 22 are administered for 3 weeks from the 4th week. CCl4 and Oil are purchased from Shanghai Aladdin Biochemical Technology Co., Ltd.
In the CCl4 induced hepatic fibrosis model, the manifestations are: inflammatory cell infiltration around the central vein area, hydropic degeneration of hepatic cells, and increased accumulation of collagen fibers in the portal area and the hepatic interlobular septum. After three weeks of administration, the mice are treated and sampled. Blood is taken from the retrobulbar vein for detection of serological indicators, and liver tissue is taken for pathological analysis.
(§4) Hematoxylin-eosin (H&E) staining: paraffin embedded tissue sections are taken and baked at 60° C. for 1 h. Dewaxing and hydration: xylene for 20 minutes→xylene for 20 minutes→absolute alcohol for 15 minutes→absolute alcohol for 15 minutes→95% alcohol for 10 minutes→90% alcohol for 5 minutes→80% alcohol for 5 minutes. Staining: hematoxylin for 7 minutes→rinsing with tap water→differentiation with 1% hydrochloric acid alcohol for 1 s→rinsing with tap water→eosin staining for 15 s-20 s→rinsing with tap water. Dehydration and transparency: 75% alcohol for 1 s→85% alcohol for 1 s→95% alcohol for 1 s→100% alcohol for 1 s→xylene for Is→xylene for 1 s. The sections are aired for 30 minutes and sealed with gum.
Sirius red staining: drying and dewaxing; standing for 5.0 minutes in double distilled water; Sirius red staining for 60-80 minutes in a dark room; washing for 5 s with 0.5% glacial acetic acid; dehydration and transparency, sealing and taking photos.
Immunohistochemistry: drying sections, dewaxing, and then soaking in double distilled water for 5 minutes. Antigen retrieval: putting the shelf where pathological sections are placed into a beaker containing citric acid buffer (PH=6.0), and keeping it under high temperature and pressure for 15 minutes; taking out the beaker and letting it stand at room temperature until the temperature drops to the room temperature, then taking out the sections and putting them into 3.0% hydrogen peroxide for 10 minutes to block the endogenous peroxidase activity, and then washing them with PBS for three times, 5 minutes each time; sealing the tissues with 1.0% BSA for 1 h; removing 1.0% BSA, adding Collagen I antibody on the tissue according to the proportion recommended in the Description, and staying overnight at 4° C.; taking out the pathological sections next day, adding the second antibody with horseradish peroxidase after the room temperature is restored, incubating it at 37° C. for 60 minutes, and then use DAB (diaminobenzidine) ([…], USA) to develop color; and re-staining with hematoxylin staining solution, washing with tap water for 5 minutes, differentiating with 1% hydrochloric acid alcohol, then washing with tap water for 5 minutes again, dehydrating, airing, sealing, and taking photos (H&E staining solution and Sirius red staining solution are purchased from Sangon Biotech (Shanghai) Co., Ltd., and Collagen I antibody is purchased from CST Corporation).

LX2 cells = test: Activity evaluation in LX2 cell model (α-SMA protein expression); format: cell-based, human; conditions: 1.0 μM and 10.0 μM, 48 hours incubation, GAPDH internal reference, FIG. 1
From the text: In LX2 cell model (which can be directly used as the evaluation model of hepatic fibrosis cells in vitro, because LX2 cells are human liver activated stellate cells. The LX2 cells are purchased from China Center for Type Culture Collection of the Chinese Academy of Sciences, Shanghai, China), the anti-fibrosis activities of peptide compounds 1-25 are preliminarily screened, and the expression of the marker α-SMA protein of myofibroblast activation is detected. The peptide compounds 1-25 is subjected to cell incubation for 48 hours by using two concentrations (1.0 μM and 10.0 μM). The control group is given the same volume of Dulbecco's modified Eagle medium (DMEM) (purchased from Gibco in the United States), and GAPDH (purchased from TransGen Biotech) as the internal reference, α-actin (α-SMA) is a symbolic feature that distinguishes myoblast cells from myofibroblasts.

MMP9 = test: ELISA of MMP9 in serum of mice of the bleomycin model; format: in vivo, C57BL/6J mice; conditions: BLM mice, 150 μg/kg daily intraperitoneal, 14 days, FIG. 6-A
Procedure: as §1, §2, §3

[2] = tested on: bleomycin induced pulmonary fibrosis; test: Bleomycin (BLM) induced pulmonary fibrosis model in mice; format: in vivo, C57BL/6J mice; conditions: 150 μg/kg daily intraperitoneal, 14 days, FIG. 5; for degree of pulmonary fibrosis (H&E staining and Masson staining): compared with bleomycin control group; for fibronectin in pulmonary parenchyma (α-SMA and Collagen1 immunohistochemistry): compared with bleomycin group
Procedure: as §1, §2
as §4, with “H&E” for “Hematoxylin-eosin (H&E)”, “1 s→xylene” for “Is→xylene”
Masson staining: drying and dewaxing; mordanting; adding celestine blue staining solution for 2-3 min, and washing with water; adding Mayer hematoxylin staining solution and washing with water; differentiating with acid alcohol differentiation liquid for several seconds, and washing with tap water; adding ponceau magenta staining solution and washing with distilled water; treating with phosphomolybdic acid solution; adding aniline blue staining solution for 5 min; treating with weak acid solution for 2 min; dehydration and transparency, airing and sealing with gum.
Immunohistochemistry: drying sections, dewaxing, and then soaking in double distilled water for 5 minutes. […]

Row | Substance | concentration of TGF-β in serum of mice (TGF-β) | aggregation of inflammatory cells in the liver (HE staining) [1] | hepatic fibrosis of mice [1] | expression of Collagen I in the liver (immunohistochemistry) [1] | collagen deposition in the liver (Sirius red staining) [1] | inhibiting and improving the activity of α-SMA (expression of α-SMA protein) (LX2 cells) | concentration of MMP9 in serum of mice (MMP9) | degree of pulmonary fibrosis (H&E staining and Masson staining) [2] | fibronectin in pulmonary parenchyma (α-SMA and Collagen1 immunohistochemistry) [2]
1 | Compound 21: cyclic peptide compound, head-to-tail amide (cyclo(V[Iva]GSPSAQDEASPA); SMILES CC[C@]1(C)NC(=O)[C@H](C(C)C)NC(=O)[C@H](C)NC(=O)[C@@H]2CCCN2C(=O)[C@H](CO)NC(=O)[C@H](C)NC(=O)[C@H](CCC(=O)O)NC(=O)[C@H](CC(=O)O)NC(=O)[C@H](CCC(N)=O)NC(=O)[C@H](C)NC(=O)[C@H](CO)NC(=O)[C@@H]2CCCN2C(=O)[C@H](CO)NC(=O)CNC1=O) | significantly reduce | significantly improved | significantly improved | significant therapeutic improvement | significant therapeutic improvement | better effects on inhibiting and improving the activity of α-SMA | significantly reduce | significantly reduced | significantly less than that in bleomycin group
2 | Compound 22 (V[Iva]GSPSAQEEASPA; not fully specified (N-terminus, C-terminus)) | significantly reduce | significantly improved | significantly improved | significant therapeutic improvement | significant therapeutic improvement | better effects on inhibiting and improving the activity of α-SMA | significantly reduce | significantly reduced | significantly less than that in bleomycin group
